Assay results published in EPA's ToxRefDB 2.

Columns and labels:
[1] = system: mouse; details: Carcinogenicity, cd1, Oral, Feed, dose end: 18 month, group: systemic
[2] = system: rat; details: Combined chronic toxicity/carcinogenicity, sprague dawley, Oral, Feed, dose end: 24 month, group: systemic
[3] = system: rat; details: Subchronic oral toxicity in rodents, sprague dawley, Feed, dose end: 90 day, group: systemic
[4] = system: rat; details: Multigenerational reproductive toxicity study, sprague dawley, Oral, Feed, dose end: 2 generation
[5] = system: dog; details: Chronic toxicity, beagle, Oral, Capsule, dose end: 52 week, group: systemic
[6] = system: rat; details: Combined chronic toxicity/carcinogenicity; fischer; Oral; Feed; dose end: 365 day; group: systemic; systemic / pathology gross / full gross necropsy / adenoma
[7] = system: mouse; details: Combined chronic toxicity/carcinogenicity; other; Oral; Feed; dose end: 365 day; group: systemic; systemic / pathology gross / full gross necropsy / lymphoma malignant
[8] = systemic / hematology / anemia / anemia - nos + systemic / hematology / erythrocyte (rbc) count differential / erythrocyte (rbc) + systemic…
[9] = systemic / in life observation / clinical signs / fur (altered appearance) + systemic / pathology gross / penis / prolapse
[10] = systemic / hematology / erythrocyte (rbc) count differential / erythrocyte (rbc) + systemic / hematology / hematocrit (hct) / hematocrit (…
[11] = systemic / in life observation / clinical signs / fur (altered appearance) + systemic / in life observation / clinical signs / urine, …
[12] = group: offspring, systemic / in life observation / body weight / offspring (pup) weight
[13] = group: parental, systemic / pathology gross / spleen / discolored + systemic / pathology microscopic / spleen / congestion + systemic / pathology microscopic…
[14] = group: reproductive, reproductive / offspring survival early / litter size / litter size
[15] = systemic / clinical chemistry / cholesterol / cholesterol + systemic / clinical chemistry / bilirubin / total bilirubin + systemic / …
[16] = systemic / hematology / platelet / platelet + systemic / organ weight / spleen / absolute + systemic / organ weight / spleen / relative to …

**Q.** With c1ccc(Nc2ccccc2)cc1 [Diphenylamine] as the compound, how does the LOAEL [1, 8] read?
**A.** The LOAEL was 368 mg/kg/day.

**Q.** And the NOAEL [1, 8]?
**A.** The NOAEL was 73.2 mg/kg/day.

**Q.** And the LEL [1, 9]?
**A.** The LEL was 73.2 mg/kg/day.

**Q.** And the NEL [1, 9]?
**A.** The NEL was < 73.2 mg/kg/day.

**Q.** What about the LOAEL [2, 10] of the same compound?
**A.** Its LOAEL is 138 mg/kg/day.

**Q.** And the NEL [2, 10]?
**A.** Its NEL is 7.5 mg/kg/day.

**Q.** What about the NOAEL [2, 10] of the same compound?
**A.** The NOAEL was 24.9 mg/kg/day.

**Q.** What about the LEL ([2]; systemic / hematology / erythrocyte (rbc) count differential / erythrocyte (rbc) + systemic / pathology gross / spleen / discolored + …) of the same compound?
**A.** Its LEL is 24.9 mg/kg/day.

**Q.** And the LOAEL [3, 11]?
**A.** The LOAEL was 547 mg/kg/day.

**Q.** What about the NEL [3, 11] of the same compound?
**A.** The NEL was 9.6 mg/kg/day.

**Q.** And the NOAEL [3, 11]?
**A.** The NOAEL was 95.8 mg/kg/day.

**Q.** What about the LEL ([3]; systemic / pathology microscopic / spleen / hematopoietic cell proliferation erythrocytic) of the same compound?
**A.** Its LEL is 95.8 mg/kg/day.

**Q.** And the LEL [4, 12]?
**A.** The LEL was 115 mg/kg/day.

**Q.** And the LOAEL [4, 12]?
**A.** Its LOAEL is 115 mg/kg/day.

**Q.** What about the NEL [4, 12] of the same compound?
**A.** Its NEL is 40 mg/kg/day.

**Q.** And the NOAEL [4, 12]?
**A.** Its NOAEL is 40 mg/kg/day.

**Q.** And the LEL [4, 13]?
**A.** The LEL was 40 mg/kg/day.

**Q.** What about the LOAEL [4, 13] of the same compound?
**A.** The LOAEL was 40 mg/kg/day.

**Q.** What about the NEL [4, 13] of the same compound?
**A.** The NEL was < 40 mg/kg/day.

**Q.** What about the NOAEL [4, 13] of the same compound?
**A.** The NOAEL was < 40 mg/kg/day.

**Q.** And the LEL [4, 14]?
**A.** The LEL was 399 mg/kg/day.

**Q.** What about the LOAEL [4, 14] of the same compound?
**A.** Its LOAEL is 399 mg/kg/day.

**Q.** And the NEL [4, 14]?
**A.** The NEL was 115 mg/kg/day.

**Q.** What about the NOAEL [4, 14] of the same compound?
**A.** The NOAEL was 115 mg/kg/day.

**Q.** And the LOAEL [5, 15]?
**A.** The LOAEL was 50 mg/kg/day.

**Q.** What about the NOAEL [5, 15] of the same compound?
**A.** The NOAEL was 10 mg/kg/day.

**Q.** And the LEL [5, 16]?
**A.** The LEL was 10 mg/kg/day.

**Q.** And the NEL [5, 16]?
**A.** The NEL was < 10 mg/kg/day.

**Q.** Which results are given for NC(N)=O [Urea]?
**A.** LEL [6]: 225 mg/kg/day; LOAEL [6]: > 225 mg/kg/day; NEL [6]: < 225 mg/kg/day; NOAEL [6]: ≥ 225 mg/kg/day; LEL [7]: 675 mg/kg/day; LOAEL [7]: > 675 mg/kg/day; NEL [7]: < 675 mg/kg/day; NOAEL [7]: ≥ 675 mg/kg/day
